Laboratory results taken from patent EP4711365A1 (Shanghai Hansoh Biomedical Co., Ltd., priority 2023, dated 2024).

How the values were obtained:
[1] = test system: Groα secretion by HT-29 cells; assay: Inhibition of Groα secretion by HT-29 cells stimulated with IL-17A (ELISA); format: cell-based, Human; conditions: Homo sapiens, IL-17A 30 ng/ml, Groα in supernatant
Protocol: Test example 2 Assay for inhibitory effect of compounds of the present invention against Groα secretion by HT-29 cells
Experimental objective: to measure the inhibitory effect of the compounds against Groα secretion by HT-29 cells, thereby evaluating the inhibition of the compounds on IL-17A pathway.
Experimental method: A cell suspension at 50,000 cells/ml was prepared, and 200 µl of the cell suspension was added to each well of a 96-well plate, i.e., 10,000 cells/well. The plate was cultured overnight. In the 96-well V-bottom plate, 5 mM compound solution was serially diluted 3-fold using DMSO, and the compound from each well was diluted 100-fold using a complete culture medium. IL-17A protein (R&D, #BT7955-025/CF) with a stock concentration of 100 µg/ml was diluted 333.33-fold using a complete culture medium. The compound and IL-17A were mixed at a volume ratio of 1:1 and incubated at 37°C for 30 minutes. 50 µl of a mixture of the compound and IL-17A was added to cell wells, and the final concentration of IL-17A protein was 30 ng/ml.
The mixture was incubated in a 37°C, 5% CO2 cell culture incubator for 48 hours. The concentration of Groα in the supernatant was determined by ELISA method using Human Groα Valukin Elisa kit (Biotechne, # VAL139), and the absorbance intensity at 450 nm was measured using a microplate reader (PE, EnVision2105). Data were analysed using GraphPad Prism 8.3.0.
Experimental data processing method: Data were analysed using GraphPad Prism 8.3.0.
Inhibition rate% = [(average value of positive control wells - value of sample wells)/(average value of positive control wells - average value of negative control wells)] × 100%, where the sample wells are wells containing cells plus compounds at different concentration gradients, the positive control wells are wells containing cells plus IL-17A, and the negative control wells are wells containing culture medium plus IL-17A.
Curve fitting: The IC50 value was obtained by curve fitting based on the inhibition rate (%) at each concentration using the log(inhibitor) vs. responseVariable slope (four parameters) in GraphPad Prism 6.0, and the calculation equation was Y = Bottom + (Top-Bottom)/(1+10^((LogIC50-X)*HillSlope)).

[2] = Pharmacokinetic assay in Wistar rats, oral; conditions: rat, 30 mg/kg
Protocol: Experimental objective: to study the pharmacokinetic behaviours of the compounds of the present invention in the body (plasma) of Wistar rats as test animals after oral administration at a dose of 30 mg/kg. • 2. Experimental scheme • 2.1 Test drugs: the examples of the present invention, prepared in house. • 2.2 Test animals: Wistar rats (female, 3 rats per group), from Beijing Vital River Laboratory Animal Technology Co., Ltd., with the animal production license no.
Solutol HS15 was melted in a water bath at 50-60°C, and then 50 mL of the melted Solutol HS15 was added to 450 mL of ultrapure water. The mixture was stirred and sonicated to obtain 500 mL of 10% Solutol HS15 solution. The compound was weighed, and according to the total administration volume, 30% PEG solution was first added. The mixture was shaken uniformly and sonicated until a clear solution was obtained. Subsequently, 70% (10% Solutol) in water was added, resulting in a colourless and clear solution with a concentration of 3.0 mg/mL.
2.4 Administration scheme: After overnight fasting, 3 female Wistar rats per group were administered orally (PO) at a dose of 30 mg/kg with an administration volume of 10 mL/kg.
• 1) To 50 uL of plasma sample was added 250 uL of acetonitrile for precipitation, and the mixture was mixed and then centrifuged at 4°C at 4000 rpm for 20 minutes. • 2) The treated supernatant solution was taken and subjected to LC/MS/MS to analyse the concentration of the test compounds. LC/MS/MS analysis instrument: AB Sciex API-4000 Qtrap-Shimadzu Controller-CBM20A.
• Chromatographic column: Waters Xbridge C18 3.5 um 2.1*50 mm • Mobile phase: solution A: 0.1% formic acid in water, and solution B: 0.1% formic acid in acetonitrile • Flow rate: 0.6 mL/min • Elution time: 0-3.5 minutes, with eluents as follows:

Compound | IC50 ([1]; HT-29, 48 h) | AUC(0-t) ([2]; in vivo) | Cmax ([2]; in vivo) | Tmax ([2]; in vivo) | half-life ([2]; in vivo) | IC50 ([1]; 48 hours) | AUC(0-t) ([2]; plasma) | Cmax ([2]; plasma) | Tmax ([2]; plasma) | half-life ([2]; plasma)
[2H]C([2H])([2H])O[C@@H]1CCN(C[C@H](c2cnc(NC(=O)[C@@H](NC(=O)c3ccnn3C([2H])([2H])C([2H])([2H])[2H])[C@H]3CC[C@H](C)CC3)s2)N2CC(F)(F)CCC2=O)C[C@@H]1F [Example 994] | 9 nM | 13100 ng·h/mL | 2000 ng/mL | 4 h | 2.4 h |  |  |  |  | 
[2H]C([2H])([2H])C([2H])([2H])n1nccc1C(=O)N[C@H](C(=O)Nc1ncc([C@@H](CN2C[C@H](C)O[C@@H](C)C2)N2CC(F)(F)CCC2=O)s1)[C@H]1CC[C@H](C)CC1 [Example 854, N-((S)-2-((5-((R)-1-(5,5-difluoro-2-oxopiperidin-1-yl)-2-((2S,6S)-2,6-dimethylmorpholino)ethyl)thiazol-2-yl)amino)-1-((1r,4S)-4-methylcyclohexyl)-2-oxoethyl)-1-(ethyl-d5)-1H-pyrazole-5-carboxamide] |  |  |  |  |  | 9 nM | 14900 ng·h/mL | 2170 ng/mL | 1 h | 3 h
[2H]C([2H])([2H])C([2H])([2H])n1nccc1C(=O)N[C@H](C(=O)Nc1ncc([C@@H](CN2CCOC[C@@H]2C)N2CC(F)(F)CCC2=O)s1)[C@H]1CC[C@H](C)CC1 [Example 816] | 4.6 nM | 28400 ng·h/mL | 2540 ng/mL | 4 h | 3.8 h |  |  |  |  | 
[2H]C([2H])([2H])C([2H])([2H])n1nccc1C(=O)N[C@H](C(=O)Nc1ncc([C@@H](CN2C[C@@H](C)O[C@H](C)C2)N2CC(F)(F)CCC2=O)s1)[C@H]1CC[C@H](C)CC1 [Example 857, N-((S)-2-((5-((R)-1-(5,5-difluoro-2-oxopiperidin-1-yl)-2-((2R,6R)-2,6-dimethylmorpholino)ethyl)thiazol-2-yl)amino)-1-((1r,4S)-4-methylcyclohexyl)-2-oxoethyl)-1-(ethyl-d5)-1H-pyrazole-5-carboxamide] |  |  |  |  |  | 2.4 nM | 15900 ng·h/mL | 2290 ng/mL | 2 h | 3.5 h
[2H]C([2H])([2H])C([2H])([2H])n1nccc1C(=O)N[C@H](C(=O)Nc1ncc([C@@H](CN2CCC(CF)CC2)N2CC(F)(F)CCC2=O)s1)[C@H]1CC[C@H](C)CC1 [Example 928] | 4 nM | 18900 ng·h/mL | 2160 ng/mL | 4 h | 4.5 h |  |  |  |  | 
[2H]C([2H])([2H])C([2H])([2H])n1nccc1C(=O)N[C@H](C(=O)Nc1ncc([C@@H](CN2CCC(C(F)F)CC2)N2CC(F)(F)CCC2=O)s1)[C@H]1CC[C@H](C)CC1 [Example 938] | 4.4 nM | 12500 ng·h/mL | 1240 ng/mL | 4 h | 6 h |  |  |  |  | 
[2H]C([2H])([2H])C([2H])([2H])n1nccc1C(=O)N[C@H](C(=O)Nc1ncc([C@@H](CN2CCO[C@@H](C)C2)N2CC(F)(F)CCC2=O)s1)[C@H]1CC[C@H](C)CC1 [Example 628] |  | 20900 ng·h/mL | 2270 ng/mL | 4 h | 3.3 h | 6.7 nM |  |  |  | 
[2H]C([2H])([2H])C([2H])([2H])n1nccc1C(=O)NC(C(=O)Nc1ncc(C(COC)n2cc(Cl)ccc2=O)s1)C1CCC(C)CC1 (centres unmarked) [Example 586] | 8.1 nM | 15300 ng·h/mL | 1750 ng/mL | 2 h | 4.3 h |  |  |  |  | 
[2H]C([2H])([2H])C([2H])([2H])n1nccc1C(=O)NC(C(=O)Nc1ncc(C(CN2CC(C)OCC2C)N2CC(F)(F)CCC2=O)s1)C1CCC(C)CC1 [Example 864, N-((S)-2-((5-((R)-1-(5,5-difluoro-2-oxopiperidin-1-yl)-2-((2R,5S)-2,5-dimethylmorpholino)ethyl)thiazol-2-yl)amino)-1-((1r,4S)-4-methylcyclohexyl)-2-oxoethyl)-1-(ethyl-d5)-1H-pyrazole-5-carboxamide] | 3 nM | 15700 ng·h/mL | 1600 ng/mL | 4 h | 3.7 h |  |  |  |  | 
[2H]C([2H])([2H])C([2H])([2H])n1nccc1C(=O)N[C@H](C(=O)Nc1ncc([C@@H](CN2CCC3(CC2)CC3(F)F)N2CC(F)(F)CCC2=O)s1)[C@H]1CC[C@H](C)CC1 [Example 958] | 2.3 nM | 13200 ng·h/mL | 1500 ng/mL | 4 h | 9.4 h |  |  |  |  | 
CCn1nccc1C(=O)N[C@H](C(=O)Nc1ncc([C@@H](CN2CCC(OC)CC2)N2CC(F)(F)CCC2=O)s1)[C@H]1CC[C@H](C)CC1 [Example 646] | 8 nM | 19800 ng·h/mL | 3830 ng/mL | 2 h | 2.4 h |  |  |  |  | 
[2H]C([2H])([2H])OC1CCN(CC(c2cnc(NC(=O)C(NC(=O)c3ccnn3C([2H])([2H])C([2H])([2H])[2H])C3CCC(C)CC3)s2)N2CC(F)(F)CCC2=O)CC1F (centres unmarked) [Example 992] | 3.5 nM | 24600 ng·h/mL | 4930 ng/mL | 2 h | 2.9 h |  |  |  |  | 
[2H]C([2H])([2H])C([2H])([2H])n1nccc1C(=O)N[C@H](C(=O)Nc1ncc([C@@H](CN2CCC(C(F)(F)F)CC2)N2CC(F)(F)CCC2=O)s1)[C@H]1CC[C@H](C)CC1 [Example 948] | 6.5 nM | 18800 ng·h/mL | 1710 ng/mL | 4 h | 9.3 h |  |  |  |  | 
[2H]C([2H])([2H])C([2H])([2H])n1nccc1C(=O)NC(C(=O)Nc1ncc(C(COC)N2CC(F)(F)CCC2=O)s1)C1CCC(C)CC1 [Example 613, N-((S)-2-((5-((R)-1-(5,5-difluoro-2-carbonylpiperidin-1-yl)-2-methoxyethyl)thiazol-2-yl)amino)-1-((1r,4S)-4-methylcyclohexyl)-2-carbonylethyl)-1-(ethyl-d5)-1H-pyrazole-5-carboxamide] |  |  |  |  |  | 5.6 nM | 21000 ng·h/mL | 3300 ng/mL | 2 h | 2.6 h
[2H]C([2H])([2H])C([2H])([2H])n1nccc1C(=O)NC(C(=O)Nc1ncc(C(CN2CCOCC2C)N2CC(F)(F)CCC2=O)s1)C1CCC(C)CC1 (centres unmarked) [Example 818] | 2.6 nM | 15500 ng·h/mL | 2650 ng/mL | 2 h | 3.1 h |  |  |  |  | 
[2H]C([2H])([2H])C([2H])([2H])n1nccc1C(=O)N[C@H](C(=O)Nc1ncc([C@@H](CN2CCOCC2)N2CC(F)(F)CCC2=O)s1)[C@H]1CC[C@H](C)CC1 [Example 624, N-((S)-2-((5-((R)-1-(5,5-difluoro-2-oxopiperidin-1-yl)-2-morpholinoethyl)thiazol-2-yl)amino)-1-((1r,4S)-4-methylcyclohexyl)-2-oxoethyl)-1-(ethyl-d5)-1H-pyrazole-5-carboxamide] |  |  |  |  |  | 4.3 nM | 11000 ng·h/mL | 3400 ng/mL | 1 h | 1 h
[2H]C([2H])([2H])C([2H])([2H])n1nccc1C(=O)N[C@H](C(=O)Nc1ncc([C@@H](CN2CCO[C@H](C)C2)N2CC(F)(F)CCC2=O)s1)[C@H]1CC[C@H](C)CC1 [Example 627, N-((S)-2-((5-((R)-1-(5,5-difluoro-2-oxopiperidin-1-yl)-2-((R)-2-methylmorpholino)ethyl)thiazol-2-yl)amino)-1-((1r,4S)-4-methylcyclohexyl)-2-oxoethyl)-1-(ethyl-d5)-1H-pyrazole-5-carboxamide] |  |  |  |  |  | 6.3 nM | 22100 ng·h/mL | 2530 ng/mL | 4 h | 3.2 h
[2H]C([2H])([2H])C([2H])([2H])n1nccc1C(=O)N[C@H](C(=O)Nc1ncc([C@@H](CN2C[C@@H](C)O[C@@H](C)C2)N2CC(F)(F)CCC2=O)s1)[C@H]1CC[C@H](C)CC1 [Example 849, N-((S)-2-((5-((R)-1-(5,5-difluoro-2-oxopiperidin-1-yl)-2-((2R,6S)-2,6-dimethylmorpholino)ethyl)thiazol-2-yl)amino)-1-((1r,4S)-4-methylcyclohexyl)-2-oxoethyl)-1-(ethyl-d5)-1H-pyrazole-5-carboxamide] |  |  |  |  |  | 4 nM | 15500 ng·h/mL | 2480 ng/mL | 2 h | 2.8 h
C[C@H]1CC[C@H]([C@H](NC(=O)C2(F)CC2)C(=O)Nc2ncc([C@@H](CN3CCC(C(F)(F)F)CC3)N3CC(F)(F)CNC3=O)s2)CC1 [Example 774, N-((S)-2-((5-((R)-1-(5,5-difluoro-2-oxotetrahydropyrimidin-1(2H)-yl)-2-(4-(trifluoromethyl)piperidin-1-yl)ethyl)thiazol-2-yl)amino)-1-((1r,4S)-4-methylcyclohexyl)-2-oxoethyl)-1-fluorocyclopropane-1-carboxamide] | 5 nM | 24400 ng·h/mL | 2310 ng/mL | 4 h | 4.5 h |  |  |  |  | 
